Results taken from PubChem BioAssay AID2060912 (Molecular Pharmacology Branch, DTP, NCI, 2025).

Tested on: HUVEC/MSC spheroids viability
Experiment: Human HUVEC/MSC cell line growth inhibition [KRAS2];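 as to viability, T/C: percent of DMSO vehicle control luminescence so 100% = untreated viability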
Conditions: for IC50: curve of first compound; for viability, T/C: stronger effect = lower value
Summary of the method: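 Concentration ranges start near each agent's clinical Cmax, or at 10 microM if none is established, and fall by half-log increments. These ranges are tested as single agents and combinations on endothelial/mesenchymal stem cell spheroids lacking tumour cells.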

[1] = second compound 0.0316 µM, first compound 0.0316 µM
[2] = second compound 0.0316 µM, first compound 0.1 µM
[3] = second compound 0.1 µM, first compound 0.0316 µM
[4] = second compound 0.1 µM, first compound 0.1 µM
[5] = second compound 0.316 µM, first compound 0.0316 µM
[6] = second compound 0.316 µM, first compound 0.1 µM
[7] = second compound 1 µM, first compound 0.0316 µM
[8] = second compound 1 µM, first compound 0.1 µM
[9] = second compound 3.16 µM, first compound 0.0316 µM
[10] = second compound 3.16 µM, first compound 0.1 µM
[11] = second compound 10 µM, first compound 0.0316 µM
[12] = second compound 10 µM, first compound 0.1 µM

CC(C)NCC(C(=O)N1CCN(c2ncnc3c2C(C)CC3O)CC1)c1ccc(Cl)cc1 (centres undefined) + COc1cc2nc(C)nc(NC(C)c3cc(N)cc(C(F)(F)F)c3)c2cc1OC1CCOC1
IC50 (second compound 0.0316 µM): 1970 nM
IC50 (second compound 0.1 µM): 1580 nM
IC50 (second compound 0.316 µM): 2100 nM
IC50 (second compound 1 µM): 2240 nM
IC50 (second compound 3.16 µM): 3010 nM
IC50 (second compound 10 µM): 996 nM
viability, T/C [1]: 92.4%
viability, T/C [2]: 95.3%
viability, T/C (second compound 0.0316 µM, first compound 0.316 µM): 77.1%
viability, T/C (second compound 0.0316 µM, first compound 1 µM): 52%
viability, T/C (second compound 0.0316 µM, first compound 3.16 µM): 48%
viability, T/C (second compound 0.0316 µM, first compound 10 µM): 49.5%
viability, T/C [3]: 77.5%
viability, T/C [4]: 97.5%
viability, T/C (second compound 0.1 µM, first compound 0.316 µM): 77.5%
viability, T/C (second compound 0.1 µM, first compound 1 µM): 53.4%
viability, T/C (second compound 0.1 µM, first compound 3.16 µM): 50%
viability, T/C (second compound 0.1 µM, first compound 10 µM): 36.5%
viability, T/C [5]: 80.1%
viability, T/C [6]: 102%
viability, T/C (second compound 0.316 µM, first compound 0.316 µM): 81.2%
viability, T/C (second compound 0.316 µM, first compound 1 µM): 62.9%
viability, T/C (second compound 0.316 µM, first compound 3.16 µM): 42.8%
viability, T/C (second compound 0.316 µM, first compound 10 µM): 40.4%
viability, T/C [7]: 85.1%
viability, T/C [8]: 104%
viability, T/C (second compound 1 µM, first compound 0.316 µM): 88.5%
viability, T/C (second compound 1 µM, first compound 1 µM): 59.8%
viability, T/C (second compound 1 µM, first compound 3.16 µM): 46.8%
viability, T/C (second compound 1 µM, first compound 10 µM): 44.1%
viability, T/C [9]: 74%
viability, T/C [10]: 94.2%
viability, T/C (second compound 3.16 µM, first compound 0.316 µM): 76.9%
viability, T/C (second compound 3.16 µM, first compound 1 µM): 61.8%
viability, T/C (second compound 3.16 µM, first compound 3.16 µM): 52.9%
viability, T/C (second compound 3.16 µM, first compound 10 µM): 36.3%
viability, T/C [11]: 58%
viability, T/C [12]: 71.1%
viability, T/C (second compound 10 µM, first compound 0.316 µM): 75.8%
viability, T/C (second compound 10 µM, first compound 1 µM): 49.9%
viability, T/C (second compound 10 µM, first compound 3.16 µM): 42.5%
viability, T/C (second compound 10 µM, first compound 10 µM): 33.4%

CC(C)n1nc(-c2ccc3oc(N)nc3c2)c2c(N)ncnc21 + COc1cc2nc(C)nc(NC(C)c3cc(N)cc(C(F)(F)F)c3)c2cc1OC1CCOC1
IC50 (second compound 0.0316 µM): 3.01 nM
IC50 (second compound 0.1 µM): 6.81 nM
IC50 (second compound 0.316 µM): 2.94 nM
IC50 (second compound 1 µM): 2.8 nM
IC50 (second compound 3.16 µM): 2.49 nM
IC50 (second compound 10 µM): 5.16 nM
viability, T/C (second compound 0.0316 µM, first compound 0.000316 µM): 78.9%
viability, T/C (second compound 0.0316 µM, first compound 0.001 µM): 80.2%
viability, T/C (second compound 0.0316 µM, first compound 0.00316 µM): 48.5%
viability, T/C (second compound 0.0316 µM, first compound 0.01 µM): 53%
viability, T/C [1]: 49.2%
viability, T/C [2]: 44%
viability, T/C (second compound 0.1 µM, first compound 0.000316 µM): 82.9%
viability, T/C (second compound 0.1 µM, first compound 0.001 µM): 61.5%
viability, T/C (second compound 0.1 µM, first compound 0.00316 µM): 55.5%
viability, T/C (second compound 0.1 µM, first compound 0.01 µM): 46.5%
viability, T/C [3]: 50.5%
viability, T/C [4]: 39.6%
viability, T/C (second compound 0.316 µM, first compound 0.000316 µM): 79.8%
viability, T/C (second compound 0.316 µM, first compound 0.001 µM): 76.2%
viability, T/C (second compound 0.316 µM, first compound 0.00316 µM): 48.2%
viability, T/C (second compound 0.316 µM, first compound 0.01 µM): 41.1%
viability, T/C [5]: 46.1%
viability, T/C [6]: 39%
viability, T/C (second compound 1 µM, first compound 0.000316 µM): 76%
viability, T/C (second compound 1 µM, first compound 0.001 µM): 67.2%
viability, T/C (second compound 1 µM, first compound 0.00316 µM): 49.3%
viability, T/C (second compound 1 µM, first compound 0.01 µM): 34.5%
viability, T/C [7]: 51%
viability, T/C [8]: 37.7%
viability, T/C (second compound 3.16 µM, first compound 0.000316 µM): 77%
viability, T/C (second compound 3.16 µM, first compound 0.001 µM): 71.8%
viability, T/C (second compound 3.16 µM, first compound 0.00316 µM): 44.2%
viability, T/C (second compound 3.16 µM, first compound 0.01 µM): 41.7%
viability, T/C [9]: 41.8%
viability, T/C [10]: 43.1%
viability, T/C (second compound 10 µM, first compound 0.000316 µM): 62.7%
viability, T/C (second compound 10 µM, first compound 0.001 µM): 61%
viability, T/C (second compound 10 µM, first compound 0.00316 µM): 59.3%
viability, T/C (second compound 10 µM, first compound 0.01 µM): 33.7%
viability, T/C [11]: 41.2%
viability, T/C [12]: 37.4%
